According to PMC4122966, “Novel VCP modulators mitigate major pathologies of rd10, a mouse model of retinitis pigmentosa” (Scientific Reports, 2014):

Legend:
rd10 mice = test: rd10 mouse model of retinitis pigmentosa (SD-OCT, electroretinogram, histology, electron microscopy, western blot); format: in vivo; conditions: 21-day-old, 50 mg/kg daily i.p. from day 7, vs control
Procedure: Starting 7 days after birth, KUS121 or KUS187 was administered daily (50 mg/kg) by intraperitoneal injection. […] To test the visual function of the mice, dark-adapted electroretinograms were recorded. The amplitude of the a-wave, which represents visual function of photoreceptors, was smaller in the control mice than in the KUS-treated mice (Supplementary Fig. 5b and c). The peak latency of the a-wave, which negatively correlates with visual function of photoreceptors, was delayed in the control mice as compared with the KUS-treated mice (Supplementary Fig. 5d). At age 25 days, the thinning of the outer nuclear layer (ONL) was clearly observed in the control mice (Fig. 5a). The outer nuclear layer and the junction line between the inner segment and outer segment (arrow heads in Fig. 5a), which is generally considered to be positively associated with visual function, were clearly detected in the KUS-treated but not in control mice. […] At age 29 days, the photoreceptor layer was barely detected in SD-OCT images, and electroretinogram records were almost flat in control mice. […]
Spectral-domain optical coherence tomography (SD-OCT) examinations using Multiline OCT (Heidelberg Engineering, Heidelberg, Germany) were performed[33] in rd10 mice at ages of 21, 25, 29, and 33days. Total retinal thickness (from inner limiting membrane to Bruch membrane) in rd10 mice was measured using volume scan images[33] within a circle 0.366 mm in diameter, the center of which was adjusted to the center of the optic nerve head. […]
Electroretinogram recording was performed to assess the visual function of rd10 mice at ages of 21, 25, 29, and 33 days. […] Electroretinograms were recorded using a gold loop corneal electrode with a light-emitting diode (Mayo Corp., Inazawa, Japan). […] The electroretinogram response signals were amplified, digitized at 10 kHz with a band-pass filter of 0.3 to 500 Hz, and analyzed (PowerLab 2/25; AD instruments, New South Wales, Australia). […]

HeLa cells = test: immunocytochemistry of laminin γ1 aggregation in tunicamycin-treated cells; format: cell-based; conditions: HeLa, Tm 0.5 μg/ml, 5 hours, 50 μM KUS
Procedure: Figure 4 KUSs and ATP each prevented a decrease of ATP levels and ameliorated ER stress in tunicamycin-treated cells. (a) Immunocytochemical analyses of HeLa cells by an anti-laminin γ1 antibody. HeLa cells were treated with 0.5 μg/ml of tunicamycin (Tm) for 5 hours in the presence of KUSs (50 μM), ATP (0.1, 0.3, and 1 mM), methylpyruvate (MePyr) (3 and 10 mM), or vehicle alone (DMSO). Then, cells were fixed and subjected to immunocytochemical analyses. Normally growing HeLa cells were also analyzed (Control). Scale bar, 10 μm. (b) Measurements of the relative amounts of ATP per cell. HeLa cells were treated with tunicamycin (Tm, 0.5 μg/ml) for 24 hours in the presence of KUSs (50 μM) or ATP (0.1 and 1 mM), or vehicle alone (DMSO), and were harvested. Then, ATP amounts from 1.5 × 10^5 cells were measured. * P < 0.05, ** P < 0.01. Error bars indicate SD. (c) Western blot analyses on CHOP. HeLa cells were treated with 0.5 μg/ml of tunicamycin for 5 hours in the presence of KUSs (50 μM), ATP (0.1, 0.3, and 1 mM), methylpyruvate (MePyr) (3 and 10 mM), or vehicle alone (-). Then, cells were harvested and subjected to western blot analyses. Actin served as a loading control. Complete scans of the different blots are presented in Supplementary Fig. 9.

With `Cc1cc(F)ccc1-c1ccc(/N=N/c2cc(S(=O)(=O)O)c3ccccc3c2N)cn1` [KUS121] the “mean amplitude of the a-wave, dark-adapted electroretinogram” value (rd10 mice) was “larger than that in control rd10 mice” and the “aggregation of laminin γ1” value (HeLa cells) was “clearly prevented the aggregation of laminin γ1”.
